Results: ChEMBL document CHEMBL1221220, “Transport and signaling via the amino acid binding site of the yeast Gap1 amino acid transceptor” (Nat Chem Biol, 2009)
Numbering of substitutions follows the chain as printed. Activity calls are given as the source filed them. The calls are words filed in the database; no cut-off is given here.

Tests used:
[1] = test system: General amino-acid permease GAP1 (Saccharomyces cerevisiae), P19145 [V402C]; experiment: Inhibition of yeast Gap1 V402C mutant-mediated amino acid uptake at 10 mM
[2] = test system: T1, General amino-acid permease GAP1 (Saccharomyces cerevisiae), P19145 [A385C]; experiment: Induction of yeast Gap1 A385C mutant-mediated […] activation at 2 mM in presence of 10 mM MTSEA treated before compound addition
T1 sequence (whole entry): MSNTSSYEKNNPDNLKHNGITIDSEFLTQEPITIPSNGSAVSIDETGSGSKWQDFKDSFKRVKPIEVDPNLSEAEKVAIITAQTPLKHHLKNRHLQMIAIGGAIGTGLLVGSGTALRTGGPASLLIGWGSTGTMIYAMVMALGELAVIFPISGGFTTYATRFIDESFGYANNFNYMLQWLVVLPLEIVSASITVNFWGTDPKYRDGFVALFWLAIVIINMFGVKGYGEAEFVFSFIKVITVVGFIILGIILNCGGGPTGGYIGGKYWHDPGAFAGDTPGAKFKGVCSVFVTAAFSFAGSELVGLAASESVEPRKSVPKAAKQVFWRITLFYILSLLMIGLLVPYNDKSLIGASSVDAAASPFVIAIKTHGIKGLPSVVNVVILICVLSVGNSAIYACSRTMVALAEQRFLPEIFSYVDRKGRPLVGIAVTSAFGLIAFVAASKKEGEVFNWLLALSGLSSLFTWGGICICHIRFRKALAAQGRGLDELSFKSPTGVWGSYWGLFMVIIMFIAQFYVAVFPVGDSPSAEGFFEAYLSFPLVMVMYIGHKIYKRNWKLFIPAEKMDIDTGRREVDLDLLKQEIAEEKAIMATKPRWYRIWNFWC

[3] = test system: T2, General amino-acid permease GAP1 (Saccharomyces cerevisiae), P19145 [R399C]; experiment: Induction of yeast Gap1 R399C mutant-mediated trehalose activation at 2 mM in presence of 10 mM MTSEA treated before compound addition
T2 sequence (whole entry): T1 sequence (whole entry) with C385A, R399C

[4] = test system: T3, General amino-acid permease GAP1 (Saccharomyces cerevisiae), P19145 [T400C]; experiment: Induction of yeast Gap1 T400C mutant-mediated amino acid uptake at 2 mM in presence of 10 mM MTSEA treated before compound addition
T3 sequence (whole entry): T1 sequence (whole entry) with C385A, T400C

[5] = test system: T4, General amino-acid permease GAP1 (Saccharomyces cerevisiae), P19145 [M401C]; experiment: Induction of yeast Gap1 M401C mutant-mediated amino acid uptake at 2 mM in presence of 10 mM MTSEA treated before compound addition
T4 sequence (whole entry): T1 sequence (whole entry) with C385A, M401C

Chain of General amino-acid permease GAP1 (Saccharomyces cerevisiae), P19145 [V402C] (P19145 whole entry V402C): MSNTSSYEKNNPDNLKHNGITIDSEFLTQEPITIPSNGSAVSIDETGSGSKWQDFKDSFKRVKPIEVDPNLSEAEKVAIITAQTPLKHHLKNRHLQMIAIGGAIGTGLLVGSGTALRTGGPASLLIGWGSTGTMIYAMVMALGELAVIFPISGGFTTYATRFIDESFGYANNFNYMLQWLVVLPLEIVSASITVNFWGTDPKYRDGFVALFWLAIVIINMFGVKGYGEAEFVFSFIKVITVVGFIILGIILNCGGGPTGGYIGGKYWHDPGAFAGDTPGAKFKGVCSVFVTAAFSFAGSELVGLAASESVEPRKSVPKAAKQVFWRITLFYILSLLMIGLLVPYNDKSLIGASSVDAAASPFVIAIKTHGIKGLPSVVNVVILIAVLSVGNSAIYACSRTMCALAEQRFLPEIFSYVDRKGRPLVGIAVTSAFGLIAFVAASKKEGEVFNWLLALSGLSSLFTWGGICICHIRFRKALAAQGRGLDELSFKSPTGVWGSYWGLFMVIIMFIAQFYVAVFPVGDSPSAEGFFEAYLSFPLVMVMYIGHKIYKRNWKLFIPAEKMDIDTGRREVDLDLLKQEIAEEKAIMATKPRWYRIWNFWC

inhibition [1]: Active | inhibition [2]: Active | inhibition [3]: Active | Activity [4]: Active | Activity [5]: Active
SMILES: NC(=O)NCCC[C@H](N)C(=O)O
